Molecules are shown by their SMILES. Structures can show the parent of a compound that is named as a salt.

One compound from US6926905B2, “Liposomak compositions and methods of preparation” (Yissum Research Development Company of the Hebrew …, priority 1998, dated 2005) can be followed below.

Data set [1] can be described thus: Tissue BUP post-administration: drug remaining at the site of injection (HPLC of excised tissue). Format: in vivo. The settings on record: four hours after injection, mice, subcutaneous. Here is the method:
In a separate group of mice, the amount of drug remaining at the site of injection after administration of 0.5% and 3.5% liposomal BUP (formulation 3) or 0.5% free BUP was determined. Three animals were sacrificed at 0, 0.25, 0.5, 1, 2, 4, and 8 hours after injections of all drug formulations and also at 16, 24, 48 and 96 hours after injection of the liposomal formulations. After sacrifice, a 1-cm2 circular tissue section including the entire area of injection, and extending to the peritoneum, was excised. The tissue was homogenized in 1 ml of isopropanol for 1 min, and then centrifuged at 16,000×G (Eppendorf Centrifuge 5417C, Engelsdorf, Germany). The supernatant was diluted 1:100 in isopropanol, and BUP concentration was determined using HPLC. In vivo release kinetics were done in triplicate. Results are presented in FIG. 2, where the absolute amounts remaining are expressed as mean±SD.

For data set [2], the system named is Male Swiss-Webster mice. Put plainly: Analgesic efficacy: sensory block, vocalization response to cutaneous electrical stimulation after subcutaneous injection. As to conditions: 8 mice. It counts as in vivo. On the procedure: All experiments were approved by the Institutional Animal Care and Use Committee. Male Swiss-Webster mice weighing 26+3 g (mean+SD) were used. Animals had free access to food and water, and were maintained on 12-hour dark-light cycle. Prior to testing, the hair overlying the abdomen was shaved. Analgesia was assessed using response to cutaneous electrical stimulation. A current generator (model S48, Grass Instruments, Quincy, Mass.) coupled to a constant current unit (model PSIU6F, Grass Instruments, Quincy, Mass.) was used. The current was delivered to the skin surface by touching it gently with two electrodes fashioned from #25 g needles. The vocalization threshold (the current required to produce a vocalization response) was assessed prior to injection of study solutions. […] To determine analgesic duration, mice were injected with liposomal BUP compositions having 0.5 wt % and 3.5 wt % bupivacaine, respectively, formed by dilution (as necessary of formulation 3, above. Free BUP (0.5%), hyperosmotic saline (580 mM), or drug-free liposomes were used as controls. For all groups, […] of test solution was injected subcutaneously using a #25 g needle in 8 mice. After injection, sensory block was assessed at 5, 15, 30 minutes and then at 1, 1.5, 2, 3, 4.5, 6, 9, 12, 14, 16, 17, and 19 hours. Failure to vocalize in response to stimulation with threshold current was taken as analgesia. […]

Data set [3] concerns Male Swiss-Webster mice. As to conditions: mouse, in vivo.

On to `CCCCN1CCCCC1C(=O)Nc1c(C)cccc1C` (centres unmarked) [0.5% free BUP, Bupivacaine hydrochloride], for which, in data set [1], the “amount remaining at the site” value worked out at 8 mg and the “injected dose remaining at the site” value is listed as 1%. For the same compound, in the data set with Male Swiss-Webster mice [2], the “time at which analgesia was exhibited” value turned out to be 30 min and the “time at which analgesia was not detected (regressed in all animals)” value is 2 h. Also, the systemic toxic effects result in the data set with Male Swiss-Webster mice [3] is recorded as “produced toxicity”.
